Test system: Liver ApoB mRNA
Test: Liver ApoB mRNA knockdown by 1:57 SNALP containing cationic lipid and ApoB siRNA in mice (branched DNA QuantiGene assay)
Type: in vivo
Conditions: Balb/c mice; for ApoB knockdown relative to PBS control (%): 1:57 SNALP containing the cationic lipid with ApoB siRNA, liver ApoB:GAPD mRNA, 48 h, n = 3; for ApoB silencing activity compared to a SNALP formulation containing the C2K benchmark cationic lipid: 1:57 SNALP with ApoB siRNA, administered at the same dose as C2K SNALP
Description: In some embodiments, siRNA molecules were encapsulated into serum-stable nucleic acid-lipid particles (SNALP) composed of the following lipids: (1) the lipid conjugate PEG2000-C-DMA (3-N-[(-methoxypoly(ethylene glycol)2000)carbamoyl]-1,2-dimyristyloxypropylamine); (2) one or more cationic lipids or salts thereof (e.g., cationic lipids of Formula I of the invention and/or other cationic lipids described herein); (3) the phospholipid DPPC (1,2-dipalmitoyl-sn-glycero-3-phosphocholine) (Avanti Polar Lipids; Alabaster, Ala.); and (4) synthetic cholesterol (Sigma-Aldrich Corp.; St. Louis, Mo.) in the molar ratio 1.4:57.1:7.1:34.3, respectively. In other words, siRNA molecules were encapsulated into SNALP of the following “1:57” formulation: 1.4% PEG2000-C-DMA; 57.1% cationic lipid; 7.1% DPPC; and 34.3% cholesterol. It should be understood that the 1:57 formulation is a target formulation, and that the amount of lipid (both cationic and non-cationic) present and the amount of lipid conjugate present in the formulation may vary. Typically, in the 1:57 formulation, the amount of cationic lipid will be 57.1 mol %±5 mol %, and the amount of lipid conjugate will be 1.4 mol %±0.5 mol %, with the balance of the 1:57 formulation being made up of non-cationic lipid (e.g., phospholipid, cholesterol, or a mixture of the two).
SNALP formulations were administered by IV injection at 0.033 mg/kg or at 0.05 mg/kg into Balb/c mice (n=3 per group). Liver ApoB mRNA levels were evaluated at 48 hours after SNALP administration by a branched DNA assay (QuantiGene assay) to assess ApoB mRNA relative to the housekeeping gene GAPDH.

Compound	ApoB knockdown relative to PBS control (%) (IV 0.033 mg/kg)	ApoB silencing activity compared to a SNALP formulation containing the C2K benchmark cationic lipid	ApoB knockdown relative to PBS control (%) (IV 0.05 mg/kg)
CC/C=C\C/C=C\C/C=C\CCCCCCCCC(CCCCCCCC/C=C\C/C=C\C/C=C\CC)OCCCN(C)C [Compound 34, 3-((3Z,6Z,9Z,28Z,31Z,34Z)-heptatriaconta-3,6,9,28,31,34-hexaen-19-yloxy)-N,N-dimethylpropan-1-amine]	−41%	–	–
CCCCC/C=C\C/C=C\CCCCCCCCCC(CCCCCCC/C=C\C/C=C\CCCCC)OC(=O)N(CCCCCC)CCCN(C)C (centres unmarked) [Compound 27, (6Z,9Z,28Z,31Z)-heptatriaconta-6,9,28,31-tetraen-18-yl 3-(dimethylamino)propyl(hexyl)carbamate]	−66%	unexpectedly improved ApoB silencing activity	–
CC/C=C\CCCN(CCCN(C)C)C(=O)OC(CCCCCCC/C=C\C/C=C\CCCCC)CCCCCCCCC/C=C\C/C=C\CCCCC (centres unmarked) [Compound 28, (6Z,9Z,28Z,31Z)-heptatriaconta-6,9,28,31-tetraen-18-yl 3-(dimethylamino)propyl((Z)-hept-4-enyl)carbamate]	−68%	unexpectedly improved ApoB silencing activity	–
CCCCC/C=C/C/C=C/CCCCCCCCC(CCCCCCCC/C=C/C/C=C/CCCCC)OC(=O)CCCN(C)C [Compound 40, (6E,9E,28E,31E)-heptatriaconta-6,9,28,31-tetraen-19-yl 4-(dimethylamino)butanoate]	–	–	−58%
CC/C=C\C/C=C\C/C=C\CCCCCCCCC(CCCCCCCC/C=C\C/C=C\C/C=C\CC)OCCCCN(C)C [Compound 35, 4-((3Z,6Z,9Z,28Z,31Z,34Z)-heptatriaconta-3,6,9,28,31,34-hexaen-19-yloxy)-N,N-dimethylbutan-1-amine]	−78%	unexpectedly improved ApoB silencing activity	–
CCCCC/C=C\C/C=C\C/C=C\CCCCCC(CCCCC/C=C\C/C=C\C/C=C\CCCCC)OC(=O)CCCN(C)C [Compound 8, γ-LenMC3]	−71%	unexpectedly improved ApoB silencing activity	–
CCCCC/C=C\C/C=C\CCCCCCCCC(CCCCCCCC/C=C\C/C=C\CCCCC)SC(=O)CCCN(C)C [Compound 20, S-(6Z,9Z,28Z,31Z)-heptatriaconta-6,9,28,31-tetraen-19-yl 4 (dimethylamino) butanethioate]	–	–	−50%
CCCCCC/C=C/C=C\CCCCCCCCC(CCCCCCCC/C=C\C=C\CCCCCC)OCCCN(C)C [Compound 41, 3-((7E,9Z,28Z,30E)-heptatriaconta-7,9,28,30-tetraen-19-yloxy)-N,N-dimethylpropan-1-amine]	−52%	–	–
CCCCCC1CC1CC1CC1CC1CC1CCCCCC(CCCCCC1CC1CC1CC1CC1CC1CCCCC)OC(=O)CCCN(C)C (centres unmarked) [Compound 9, CP-γ-LenMC3]	−54%	–	–
CCC/C=C\C/C=C\CCCCCCCCC(CCCCCCCC/C=C\C/C=C\CCCCC)OC(=O)N(C)CCCN(C)C (centres unmarked) [Compound 10, MC3MC]	−50%	–	–
CCCCC/C=C\C/C=C\CCCCCCCCC(CCCCCCCC/C=C\C/C=C\CCCCC)OC(=O)N(C)CCN(C)C [Compound 11, MC2MC]	–	–	−54%
CCCCC/C=C\C/C=C\CCCCCCCCCC(CCCCCCC/C=C\C/C=C\CCCCC)OC(=O)N(CC)CCN(C)C (centres unmarked) [Compound 29, (6Z,9Z,28Z,31Z)-heptatriaconta-6,9,28,31-tetraen-18-yl 2-(dimethylamino)ethyl(ethyl)carbamate]	–	–	−59%
CC(C)CCCC(C)CCCC(C)CCCC(C)CCC(CCC(C)CCCC(C)CCCC(C)CCCC(C)C)OC(=O)CCCCN(C)C (centres unmarked) [Compound 18, Phytanyl-MC4]	–	–	−46%
CCCCC/C=C\C/C=C\CCCCCCCCC(CCCCCCCC/C=C\C/C=C\CCCCC)OCCCCN(C)C [Compound 15, MC4 Ether]	–	unexpectedly improved ApoB silencing activity	−77%
CCC1CC1CC1CC1CC1CC1CCCCCCCCC(CCCCCCCCC1CC1CC1CC1CC1CC1CC)OC(=O)CCCN(C)C (centres unmarked) [Compound 5]	−56%	–	–
CCCCC/C=C\C/C=C\CCCCCCCCC(CCCCCCCC/C=C/C/C=C/CCCCC)OC(=O)CCCN(C)C (centres unmarked) [Compound 25, (6Z,9Z,28E,31E)-heptatriaconta-6,9,28,31-tetraen-19-yl 4-(dimethylamino)butanoate]	–	–	−66%
CCCCC/C=C\C/C=C\CCCCCCCCC(CCCCCCCC/C=C\C/C=C\CCCCC)OCCCN(C)C [Compound 13, 3-((6Z,9Z,28Z,31Z)-heptatriaconta-6,9,28,31-tetraen-19-yloxy)-N,N-dimethylpropan-1-amine]	−69%	unexpectedly improved ApoB silencing activity	–
CC(C)CCCC(C)CCCC(C)CCCC(C)CCC(CCC(C)CCCC(C)CCCC(C)CCCC(C)C)OC(=O)CCCN(C)C (centres unmarked) [Compound 17, Phytanyl-MC3]	–	–	−14%
CCCCC/C=C\C/C=C\CCCCCCCCC1(CCCCCCCC/C=C\C/C=C\CCCCC)OCC(CCN(C)C)O1 (centres unmarked) [Compound C2K, 2,2-dilinoleyl-4-(2-dimethylaminoethyl)-[1,3]-dioxolane, reference compound]	−51%	–	−66%
CCCCC/C=C\C/C=C\CCCCCCCCC(CCCCCCCC/C=C\C/C=C\CCCCC)OC(=O)N(C)CCCN(CC)CC [Compound 31, (6Z,9Z,28Z,31Z)-heptatriaconta-6,9,28,31-tetraen-19-yl (3-(diethylamino)propyl)(methyl)carbamate]	–	–	−62%
CCCCC/C=C\C/C=C\CCCCCCCCC(CCCCCCCC/C=C\C/C=C\CCCCC)OC(=O)N(C)CCCN(C)CC [Compound 30, (6Z,9Z,28Z,31Z)-heptatriaconta-6,9,28,31-tetraen-19-yl (3-(ethyl(methyl)amino)propyl)(methyl)carbamate]	–	–	−65%
CCCCC/C=C\C/C=C\CCCCCCCCC(CCCCCCCC/C=C\C/C=C\CCCCC)OC(=O)CCCN(C)C [Compound 1, (6Z,9Z,28Z,31Z)-heptatriaconta-6,9,28,31-tetraen-19-yl 4-(dimethylamino)butanoate]	−71%	unexpectedly improved ApoB silencing activity	−81%
CC/C=C\C/C=C\C/C=C\CCCCCCCCC(CCCCCCCC/C=C\C/C=C\C/C=C\CC)OC(=O)CCCN(C)C [Compound 4, LenMC3]	−78%	unexpectedly improved ApoB silencing activity	–
CCCCC/C=C\C/C=C\CCCCCCCC(O)C(CCCCCCC/C=C\C/C=C\CCCCC)OC(=O)CCN(C)C (centres unmarked) [Compound 22, (6Z,9Z,27Z,30Z)-19-hydroxyhexatriaconta-6,9,27,30-tetraen-18-yl 3-(dimethylamino)propanoate]	−30%	–	–
CCCCC/C=C\C/C=C\CCCCCCCC(=O)C(CCCCCCC/C=C\C/C=C\CCCCC)OC(=O)CCCN(C)C (centres unmarked) [Compound 23, (6Z,9Z,27Z,30Z)-19-oxohexatriaconta-6,9,27,30-tetraen-18-yl 4-(dimethylamino)butanoate]	−33%	–	–

Reference: patent US20170151333A1, “NOVEL CATIONIC LIPIDS AND METHODS OF USE THEREOF” (PROTIVA BIOTHERAPEUTICS, INC., priority 2010, published 2017)
